Test results reported in article PMC5571359, “Screening the Medicines for Malaria Venture Pathogen Box across Multiple Pathogens Reclassifies Starting Points for Open-Source Drug Discovery” (Antimicrobial Agents and Chemotherapy, 2017).
Like-named read-outs stand apart in the source and are kept apart here.

Experiments:
HEK293 cells = experiment: HEK293 resazurin cell cytotoxicity assay; details: Homo sapiens
HepG2 = details: cited from earlier work; for HepG2 PBox CC20 / CC50: ref PBox supporting information; for CC50: read-out: HepG2 PBox CC50 µM, HepG2 cytotoxicity; for HepG2 PBox CC20 μMc: ref Pbox supporting information
[1] = system: Plasmodium falciparum 3D7 asexual blood stage; experiment: microbe, parasite or virus in culture
[2] = system: NF54-pfs16-LUC-GFP stage IV gametocytes; experiment: Plasmodium falciparum late stage gametocyte (LSG) image-based assay; assay type: cell-based; details: Plasmodium falciparum
[3] = system: T. b. brucei 427 bloodstream trypanosomes; experiment: T. b. brucei resazurin viability assay; assay type: cell-based, Trypanosoma brucei brucei; details: Trypanosoma brucei; read-out: T b.brucei Discovery Biology IC50
P. falciparum ABS = details: cited from earlier work; for IC50: P. falciparum 3D7, ref PBox supporting information, read-out: Pf 3D7 Pbox IC50
[4] = system: T. cruzi intracellular amastigotes; experiment: Intracellular anti-Trypanosoma cruzi image-based assay (amastigotes); assay type: cell-based; details: for IC50 / Emax: Trypanosoma cruzi; for IC50: intracellular amastigotes; for Emax: PBox kinetoplastid set compounds active against T. cruzi alone, read-out: Emax against T. cruzi (subefficacious effect)
[5] = system: L. donovani MHOM/IN/80/DD8 intracellular amastigotes; experiment: Leishmania donovani intracellular amastigote assay in THP-1 cells; assay type: cell-based; details: Leishmania donovani, THP-1, read-out: L, donovani Discovery Biology IC50 µM
[6] = system: T. cruzi C4 β-galactosidase reporter parasite in MRC 5SV2 host cells; details: ref Pbox supporting information; read-out: T. cruzi Pbox IC50; cited from earlier work
[7] = HEK293, read-out: HEK % Inhibition 20uM/IC50 Discovery Biology
[8] = 3D7, read-out: Antiplasmodial IC50 (ABS), PBox compounds, P. falciparum 3D7
[9] = 3D7, read-out: activity against P. falciparum (novel antiplasmodial actives of the tuberculosis set)
[10] = NF54, read-out: Antiplasmodial IC50 (GAM / LSG), PBox compounds, stage IV gametocytes, single determination
[11] = 3D7, read-out: Pf 3D7 Discovery Biology IC50 µM, P. falciparum 3D7 asexual blood stage, Discovery Biology
[12] = NF54, read-out: Pf Stage IV GAMS Discovery Biology IC50 µM, stage IV gametocytes, Discovery Biology
[13] = HEK293, read-out: HEK % Inhibition 20uM/IC50 Discovery Biology (IA)
[14] = HEK293, read-out: HEK % Discovery Biology IC50 uM
[15] = PBox compounds, 48 h exposure, read-out: IC50 T. cruzi (Discovery Biology)
[16] = 3D7, read-out: Pf 3D7 Discovery Biology IC50 µM, P. falciparum 3D7 asexual blood stage
[17] = NF54, read-out: Pf Stage IV GAMS Discovery Biology IC50 µM, stage IV gametocytes
[18] = read-out: T cruzi Discovery Biology IC50

For `CS(=O)(=O)N1CCC(Cn2nc(Cc3cccc4ccccc34)c3c(N)ncnc32)CC1` [MMV676050], the inhibition at 20 µM (HEK293 cells; [7]) is listed as 77% and the “HepG2 PBox CC20” value (HepG2) is listed as 53 µM.

Work on `CCC(Sc1nc2ccccc2o1)C(=O)Nc1nccs1` (stereo not shown) [MMV676383] yielded an IC50 [1, 8] of 4.43 µM, an IC50 [1, 9] of 4 to 5 µM and an inhibition at 20 µM (HEK293 cells; [7]) of 88%. The IC50 [2, 10] was 1.37 µM and the CC50 (HepG2) was 13 µM.

Molecule `COc1cccc(-n2nnnc2S(=O)(=O)Cc2ccccc2)c1` [MMV676388] has an IC50 [1, 8] of 4.93 µM, an IC50 [1, 9] of 4 to 5 µM and an IC50 [2, 10] of 2.99 µM.

`CC(Oc1ccccc1)C(=O)Nc1nc(-c2ccccn2)cs1` (stereo not shown) [MMV676411] showed an IC50 [1, 11] of 5 µM, an IC50 [3] of 3.22 µM and an inhibition at 20 µM (HEK293 cells; [7]) of 81%. The IC50 [2, 12] was 1.92 µM and the CC50 (HepG2) was 29.3 µM.

In the case of `CC(C)c1ncc(-c2ccncc2)c([C@H]2CC[C@H](CNC(=O)c3cccnc3)CC2)n1` [MMV676442], the EC50 (P. falciparum ABS; ChEMBL Data, P. falciparum, read-out: TCMDC (ref 93) EX50) is given as 0.78 µM, the IC50 (P. falciparum ABS) is given as 0.84 µM and the IC50 (HEK293 cells; [13]) is given as over 20 µM.

Work on `O=C(Nc1nc(-c2ccccn2)cs1)c1cncn1-c1ccccc1` [MMV676512] yielded an IC50 [3] of 2.87 µM, an IC50 ([4]; Discovery Biology, read-out: T cruzi Discovery Biology IC50) of 4.12 µM and an IC50 (HEK293 cells; [14]) of 2.83 µM. The CC50 (HepG2) was 3.8 µM.

In the case of `Cn1c(=O)c2c(S(C)(=O)=O)snc2n(C)c1=O` [MMV687251], the inhibition at 20 µM (HEK293 cells; [7]) is listed as 100% and the CC50 (HepG2) is listed as 1.1 µM.

In the case of `COc1cccc(-c2nc3c(N4CCCC4)cccc3n2CC2CCCN2)n1` (stereo not shown) [MMV687703], the IC50 [1, 8] is reported as 1.33 µM, the IC50 [1, 9] is reported as under 2 µM and the inhibition at 20 µM (HEK293 cells; [7]) is reported as 76%. The IC50 [2, 10] was 3.83 µM and the CC50 (HepG2) was 25 µM.

For `CC1(C)Cc2c(c(N3CCOCC3)nc3snc(Br)c23)CO1` [MMV687794], the IC50 (P. falciparum ABS) is listed as 0.29 µM and the IC50 (HEK293 cells; [13]) is listed as over 20 µM.

Work on `O=C(Nc1ccc(C(F)(F)F)c(C(F)(F)F)c1)c1cc(Cl)ccc1O` [MMV687807] yielded an IC50 [1, 11] of 1.82 µM, an IC50 ([5]; Discovery Biology, some values carry an asterisk (not explained in the part shown)) of 5.06 µM and an IC50 [3] of 0.66 µM. For the same molecule, the IC50 (HEK293 cells; [14]) was 1.99 µM, the IC50 [2, 12] was 5.07 µM and the CC50 (HepG2) was 0.65 µM.

For `CN1CCN(CCCOc2ncc(Nc3ncc(-c4ccc(C(F)(F)F)c(F)c4)nc3C(N)=O)cn2)CC1` [MMV687812], the IC50 [1, 11] is given as 1.6 µM, the inhibition at 20 µM (HEK293 cells; [7]) is given as 100% and the CC50 (HepG2) is given as 3.9 µM.

For `Cc1cccc(-c2nc(Nc3ccncn3)c3sccc3n2)n1` [MMV688122], the IC50 [1, 8] is listed as 2.11 µM, the IC50 [2, 10] is listed as 0.11 µM and the CC50 (HepG2) is listed as 14.3 µM.

With `CC(C)n1nc(-c2cc3c(Cl)cccc3[nH]2)c2c(N)ncnc21` [MMV688417] the IC50 [3] was 6.1 µM, the “activity against T. cruzi in the Discovery Biology assay” value [4] was “subefficacious activity” and the IC50 [4, 15] was 1.43 µM. It also gave an inhibition at 20 µM (HEK293 cells; [7]) of 83%.

For `CS(=O)(=O)c1ccc(C(=O)N(CC2CCCO2)c2nc3ccccc3s2)cc1[N+](=O)[O-]` (stereo not shown) [MMV688761], the IC50 [1, 16] was 4.08 µM, the IC50 [3] was 3.49 µM and the inhibition at 20 µM (HEK293 cells; [7]) was 42%. The IC50 [2, 17] was 0.9 µM and the “HepG2 PBox CC20 μMc” value (HepG2) was 6.9 µM.

In the case of `c1ccc(-c2[nH]c3ccccc3c2C(c2ccccn2)N2CCCC2)cc1` (stereo not shown) [MMV688762], the IC50 (HEK293 cells; [13]) is listed as over 20 µM, the IC50 [2, 17] is listed as 3.16 µM and the “HepG2 PBox CC20 μMc” value (HepG2) is listed as 1 µM.

`CNc1nnc(Sc2cnn(-c3ccccc3)c(=O)c2Cl)s1` [MMV688763] gave an IC50 [1, 16] of 3.36 µM, an IC50 ([5]; intracellular amastigotes, values marked *) of 2.11 µM and an IC50 (HEK293 cells; [14]) of 6.32 µM. For the same molecule, the IC50 [2, 17] was 5.33 µM and the “HepG2 PBox CC20 μMc” value (HepG2) was 1.6 µM.

`COc1ccc(-c2onc(C(F)(F)F)c2-c2ccc(Cl)cc2)c(O)c1` [MMV688766] gave an IC50 [1, 8] of 0.85 µM, an IC50 (HEK293 cells; [13]) of over 20 µM and an IC50 [2, 10] of 1.31 µM.

For `FC(F)(F)c1ccc(N(c2cccnc2)C2CCN(c3ccc(C(F)(F)F)cn3)CC2)cc1` [MMV689243], the IC50 [6] is given as 0.015 µM, the Emax [4] is given as under 100% and the IC50 [4, 18] is given as 0.7 µM. The IC50 (HEK293 cells; [7]) was over 20 µM and the “HepG2 PBox CC20” value (HepG2) was 25.8 µM.

For `O=C([C@@H](c1ccc(Cl)cc1)c1cccnc1)N1CCN(c2ccc(C(F)(F)F)cc2)CC1` [MMV689244], the IC50 [6] is listed as 0.0075 µM, the Emax [4] is listed as under 100% and the IC50 [4, 18] is listed as 0.12 µM. For the same molecule, the IC50 (HEK293 cells; [7]) was over 20 µM and the “HepG2 PBox CC20” value (HepG2) was 19.0 µM.

For `CNc1cc(C)nc(C2CN(C(=O)c3n[nH]c4ccccc34)CCO2)c1` (stereo not shown) [MMV689709], the IC50 [6] is listed as 3.89 µM, the IC50 [4, 15] is listed as 3.32 µM and the IC50 (HEK293 cells; [7]) is listed as over 20 µM.
